This test has as its system Spontaneously hypertensive rats (SHR). Description: Animal Test (2): 8-week feeding, weekly blood pressure in SHR. It counts as in vivo, rat. Particulars: PC group, 1 mg/kg. How it is done: Six-week-old spontaneously hypertensive rats (SHR) were divided into 5 groups, each receiving the corresponding treatment stated below: • Negative control group (NC group): feeding with water • Positive control group (PC group): feeding with hypertension drug Captopril at 1 mg/kg • Low-dose group (L group): feeding with the peptide composition disclosed herein at a dose of 50 mg/kg • Medium-dose group (M group): feeding with the peptide composition disclosed herein at a dose of 100 mg/kg • High-dose group (H group): feeding with the peptide composition disclosed herein at a dose of 200 mg/kg
The experiment lasted for a total of 8 weeks.

As for `C[C@H](CS)C(=O)N1CCC[C@H]1C(=O)O` [Captopril], the Diastolic blood pressure (Week 0) is 80.2 ± 6.5 mmHg; the Diastolic blood pressure (Week 1) is recorded as 79.9 ± 6.3 mmHg; the Diastolic blood pressure (Week 2) was 79.0 ± 5.3 mmHg; the Diastolic blood pressure (Week 3) is given as 78.9 ± 6.4 mmHg; the Diastolic blood pressure (Week 4) stood at 78.9 ± 3.9 mmHg; the Diastolic blood pressure (Week 5) was 78.8 ± 3.8 mmHg. The Diastolic blood pressure by setting is: (Week 6) 78.8 ± 3.2 mmHg; (Week 7) 78.8 ± 5.0 mmHg; (Week 8) 78.8 ± 2.9 mmHg. In addition, the Systolic blood pressure runs as follows: (Week 0) 111.0 ± 7.2 mmHg; (Week 1) 110.2 ± 5.8 mmHg; (Week 2) 108.8 ± 4.2 mmHg; (Week 3) 108.6 ± 4.3 mmHg; (Week 4) 108.4 ± 3.9 mmHg; (Week 5) 108.1 ± 4.1 mmHg. Besides, the Systolic blood pressure (Week 6) is listed as 108.1 ± 2.0 mmHg, the Systolic blood pressure (Week 7) is on record as 108.0 ± 3.1 mmHg and the Systolic blood pressure (Week 8) was 108.0 ± 2.5 mmHg.

Values taken from patent US20260000728A1, “PEPTIDE HAVING ACE INHIBITORY ACTIVITY AND COMPOSITION CONTAINING THE SAME” (Vedan International (Holdings) Limited, priority 2024, published 2026).
